Data: US11339161B2, “Triazolo pyridines as modulators of gamma-secretase” (Boehringer Ingelheim International GmbH, priority 2017, dated 2022)
Like-named read-outs stand apart in the source and are kept apart here.

Tests used:
[1] = biological target: MAP4K4 (HGK) (Homo sapiens, UniProt O95819); test: Z'-LYTE SelectScreen biochemical kinase assay MAP4K4 (HGK)
Text: (§1) Thermo Fisher Scientific SelectScreen™ Biochemical Kinase Profiling Service Z′-LYTE™ Screening Protocol and Assay Conditions Assay Theory
(§2) The […] biochemical assay employs a fluorescence-based, coupled-enzyme format and is based on the differential sensitivity of phosphorylated and non-phosphorylated peptides to proteolytic cleavage. The peptide substrate is labeled with two fluorophores—one at each end—that make up a FRET pair. In the primary reaction, the kinase transfers the gamma-phosphate of ATP to a single tyrosine, serine or threonine residue in a synthetic FRET-peptide. In the secondary reaction, a site-specific protease recognizes and cleaves non-phosphorylated FRET-peptides. Phosphorylation of FRET-peptides suppresses cleavage by the Development Reagent. Cleavage disrupts FRET between the donor (i.e., coumarin) and acceptor (i.e., fluorescein) fluorophores on the FRET-peptide, whereas uncleaved, phosphorylated FRET-peptides maintain FRET. A ratiometric method, which calculates the ratio (Emission Ratio=Coumarin emission (445 nm)/Fluorescein emission (520 nm)) of donor emission to acceptor emission after excitation of the donor fluorophore at 400 nm, is used to quantitate reaction progress, as shown in the equation below. A significant benefit of this ratiometric method for quantitating reaction progress is the elimination of well-to-well variations in FRET-peptide concentration and signal intensities. As a result, the assay yields very high Z′-factor values (>0.7) at a low percent phosphorylation. Both cleaved and uncleaved FRET-peptides contribute to the fluorescence signals and therefore to the Emission Ratio. The extent of phosphorylation of the FRET-peptide can be calculated from the Emission Ratio. The Emission Ratio will remain low if the FRET-peptide is phosphorylated (i.e., no kinase inhibition) and will be high if the FRET-peptide is non-phosphorylated (i.e., kinase inhibition).
(§3) The Test Compounds are screened in 1% DMSO (final) in the well. For 10 point titrations, 3-fold serial dilutions are conducted from the starting concentration of the customer's choosing.
(§4) All Peptide/Kinase Mixtures are diluted to a 2× working concentration in the appropriate Kinase Buffer (see section Kinase Specific Assay Conditions for a complete description).
(§5) All ATP Solutions are diluted to a 4× working concentration in Kinase Buffer (50 mM HEPES pH 7.5, 0.01% BRIJ-35, 10 mM MgCl2, 1 mM EGTA). ATP Km apparent is previously determined using a Z″-LYTE assay.
(§6) The Development Reagent is diluted in Development Buffer (see section Kinase-Specific Assay Conditions—Direct and Cascade for a complete description).
(§7) Bar-coded Corning, low volume NBS, black 384-well plate (Corning Cat. #4514) • 1. 100 nL—100× Test Compound in 100% DMSO • 2. 2.4 μL—Kinase buffer • 3. 5 μL—2× Peptide/Kinase Mixture • 4. 2.5 μL—4×ATP Solution • 5. 30—second plate shake • 6. 60—minute Kinase Reaction incubation at room temperature • 7. 5 μL—Development Reagent Solution • 8. 30—second plate shake • 9. 60—minute Development Reaction incubation at room temperature • 10. Read on fluorescence plate reader and analyze the data Z′-LYTE Assay Controls
(§8) SelectScreen Kinase Profiling Service uses XLfit from IDBS. The dose response curve is curve fit to model number 205 (sigmoidal dose-response model).
(§9) The 2×MAP4K4 (HGK)/Ser/Thr 07 mixture is prepared in 50 mM HEPES pH 7.5, 0.01% BRIJ-35, 10 mM MgCl2, 1 mM EGTA. The final 10 μL Kinase Reaction consists of 0.36-1.82 ng MAP4K4 (HGK) and 2 μM Ser/Thr 07 in 50 mM HEPES pH 7.5, 0.01% BRIJ-35, 10 mM MgCl2, 1 mM EGTA. After the 1 hour Kinase Reaction incubation, 5 μL of a 1:45000 dilution of Development Reagent A is added.

[2] = biological target: T1, AURKA (Aurora A) (Homo sapiens, UniProt O14965); test: Z'-LYTE SelectScreen biochemical kinase assay AURKA (Aurora A)
T1 sequence (O14965 1-403): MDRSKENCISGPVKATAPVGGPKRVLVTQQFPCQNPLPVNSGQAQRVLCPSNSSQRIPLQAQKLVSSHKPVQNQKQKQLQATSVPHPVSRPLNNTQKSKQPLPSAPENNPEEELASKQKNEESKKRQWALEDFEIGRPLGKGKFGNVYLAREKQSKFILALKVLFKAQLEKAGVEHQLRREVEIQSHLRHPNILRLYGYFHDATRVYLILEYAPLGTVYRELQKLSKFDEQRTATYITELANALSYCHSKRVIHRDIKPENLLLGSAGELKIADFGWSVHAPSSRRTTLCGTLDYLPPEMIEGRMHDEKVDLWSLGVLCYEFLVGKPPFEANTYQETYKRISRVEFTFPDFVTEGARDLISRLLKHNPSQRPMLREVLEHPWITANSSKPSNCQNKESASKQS
Text: as §1, §2, §3, §4, §5, §6, §7, §8
as §9, with “2×AURKA (Aurora A)/Ser/Thr 01” for “2×MAP4K4 (HGK)/Ser/Thr 07”, “0.91-8.56” for “0.36-1.82”, “AURKA (Aurora A)” for “MAP4K4 (HGK)”, “01” for “07”, “1:4096” for “1:45000”

[3] = biological target: KDR (VEGFR2) (Homo sapiens, UniProt P35968); test: Z'-LYTE SelectScreen biochemical kinase assay KDR (VEGFR2)
KDR (VEGFR2), sequence (P35968 20-1356): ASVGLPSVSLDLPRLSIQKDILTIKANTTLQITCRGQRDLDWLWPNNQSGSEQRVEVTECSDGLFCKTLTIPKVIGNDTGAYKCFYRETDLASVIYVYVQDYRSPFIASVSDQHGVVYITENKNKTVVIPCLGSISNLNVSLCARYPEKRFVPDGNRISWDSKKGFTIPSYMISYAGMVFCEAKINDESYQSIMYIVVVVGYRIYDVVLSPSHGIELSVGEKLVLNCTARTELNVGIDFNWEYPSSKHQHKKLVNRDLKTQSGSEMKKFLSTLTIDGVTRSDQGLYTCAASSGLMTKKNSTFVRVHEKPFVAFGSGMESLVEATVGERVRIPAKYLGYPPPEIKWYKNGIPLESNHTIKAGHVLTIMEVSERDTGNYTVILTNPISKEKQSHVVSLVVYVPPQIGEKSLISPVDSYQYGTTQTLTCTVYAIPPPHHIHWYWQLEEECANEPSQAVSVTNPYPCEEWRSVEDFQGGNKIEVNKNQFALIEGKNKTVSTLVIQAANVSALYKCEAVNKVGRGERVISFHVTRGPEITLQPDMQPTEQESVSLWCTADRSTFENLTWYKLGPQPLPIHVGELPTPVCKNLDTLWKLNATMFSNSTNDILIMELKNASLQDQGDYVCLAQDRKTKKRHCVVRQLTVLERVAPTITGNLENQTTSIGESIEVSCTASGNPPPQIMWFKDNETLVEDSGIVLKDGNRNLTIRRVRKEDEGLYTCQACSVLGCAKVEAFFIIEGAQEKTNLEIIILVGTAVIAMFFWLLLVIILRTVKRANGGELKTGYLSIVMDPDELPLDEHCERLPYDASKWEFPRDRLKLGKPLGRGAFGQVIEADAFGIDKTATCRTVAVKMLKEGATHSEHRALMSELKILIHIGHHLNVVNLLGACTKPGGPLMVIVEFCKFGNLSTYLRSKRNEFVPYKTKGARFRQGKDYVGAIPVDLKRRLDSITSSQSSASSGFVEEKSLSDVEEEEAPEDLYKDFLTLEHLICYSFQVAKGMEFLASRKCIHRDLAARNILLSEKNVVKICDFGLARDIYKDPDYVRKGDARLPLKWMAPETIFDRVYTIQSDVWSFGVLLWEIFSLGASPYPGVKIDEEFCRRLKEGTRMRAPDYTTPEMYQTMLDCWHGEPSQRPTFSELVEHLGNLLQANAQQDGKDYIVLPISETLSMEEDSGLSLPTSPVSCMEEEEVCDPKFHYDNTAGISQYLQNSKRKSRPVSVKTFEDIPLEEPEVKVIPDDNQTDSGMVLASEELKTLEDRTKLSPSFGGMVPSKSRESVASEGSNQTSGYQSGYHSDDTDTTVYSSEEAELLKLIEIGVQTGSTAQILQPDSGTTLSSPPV
Text: as §1, §2, §3, §4, §5, §6, §7, §8
The 2×KDR (VEGFR2)/Tyr 01 mixture is prepared in 50 mM HEPES pH 7.5, 0.01% BRIJ-35, 10 mM MgCl2, 1 mM EGTA. The final 10 μL Kinase Reaction consists of 1-30 ng KDR (VEGFR2) and 2 μM Tyr 01 in 50 mM HEPES pH 7.5, 0.01% BRIJ-35, 10 mM MgCl2, 1 mM EGTA. After the 1 hour Kinase Reaction incubation, 5 μL of a 1:256 dilution of Development Reagent B is added.

[4] = 10 μmolar compound concentration, ATP at Km app, read-out: MAP4K4 (HGK) inhibition
[5] = read-out: % Inhibition mean MAP4K4 (HGK)
[6] = 10 μmolar compound concentration, ATP at Km app, read-out: AURKA (Aurora A) inhibition
[7] = read-out: % Inhibition mean AURKA (Aurora A)
[8] = 10 μmolar compound concentration, ATP at Km app, read-out: KDR (VEGFR2) inhibition
[9] = read-out: % Inhibition mean KDR (VEGFR2)

MAP4K4 (HGK), sequence (O95819 whole entry): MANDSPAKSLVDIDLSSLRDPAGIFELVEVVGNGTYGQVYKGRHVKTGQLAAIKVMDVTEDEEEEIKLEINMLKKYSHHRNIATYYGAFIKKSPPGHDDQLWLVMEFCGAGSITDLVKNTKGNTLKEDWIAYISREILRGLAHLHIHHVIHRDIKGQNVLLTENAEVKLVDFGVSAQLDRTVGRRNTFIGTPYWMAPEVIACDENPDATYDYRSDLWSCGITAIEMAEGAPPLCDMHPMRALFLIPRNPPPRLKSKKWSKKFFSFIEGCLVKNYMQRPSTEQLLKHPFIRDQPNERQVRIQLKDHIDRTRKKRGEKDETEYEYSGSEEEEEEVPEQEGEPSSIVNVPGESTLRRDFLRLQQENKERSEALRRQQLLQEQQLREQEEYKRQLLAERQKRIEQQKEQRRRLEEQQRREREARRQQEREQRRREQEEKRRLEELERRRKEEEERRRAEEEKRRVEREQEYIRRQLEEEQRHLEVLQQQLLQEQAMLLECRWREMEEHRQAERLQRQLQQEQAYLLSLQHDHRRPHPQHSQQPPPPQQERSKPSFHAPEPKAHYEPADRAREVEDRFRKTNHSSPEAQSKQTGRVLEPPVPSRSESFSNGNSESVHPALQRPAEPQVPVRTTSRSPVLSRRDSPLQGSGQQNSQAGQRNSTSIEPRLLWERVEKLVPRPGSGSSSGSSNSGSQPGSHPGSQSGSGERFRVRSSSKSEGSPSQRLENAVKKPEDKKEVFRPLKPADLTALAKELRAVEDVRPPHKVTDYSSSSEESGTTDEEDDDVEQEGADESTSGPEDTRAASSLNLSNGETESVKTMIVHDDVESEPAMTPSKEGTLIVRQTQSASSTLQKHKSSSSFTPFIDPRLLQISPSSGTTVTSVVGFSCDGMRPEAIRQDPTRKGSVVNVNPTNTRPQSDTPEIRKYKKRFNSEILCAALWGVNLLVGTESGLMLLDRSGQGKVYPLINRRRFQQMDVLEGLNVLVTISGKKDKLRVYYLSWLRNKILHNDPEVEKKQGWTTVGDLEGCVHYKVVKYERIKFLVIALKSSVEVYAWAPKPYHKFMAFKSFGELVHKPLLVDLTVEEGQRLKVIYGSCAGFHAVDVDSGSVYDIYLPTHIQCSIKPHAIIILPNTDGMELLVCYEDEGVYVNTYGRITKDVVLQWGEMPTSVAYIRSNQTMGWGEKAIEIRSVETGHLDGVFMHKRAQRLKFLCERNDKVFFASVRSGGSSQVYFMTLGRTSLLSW

inhibition at 10 µM [1, 4] [%]	inhibition at 10 µM [1, 5] [%]	inhibition at 10 µM [2, 6] [%]	inhibition at 10 µM [2, 7] [%]	inhibition at 10 µM [3, 8] [%]	inhibition at 10 µM [3, 9] [%]	Structure (SMILES)
40 to 80	74	> 80	85	< 40	8	CCn1ncc2c1CCC(Nc1nc3c(-c4cncc(Cl)c4)cccn3n1)C2 (stereo not drawn) [Example 73, [8-(5-Chloro-pyridin-3-yl)-[1,2,4]triazolo[1,5-a]pyridine-2-yl]-(1-ethyl-4,5,6,7-tetrahydro-1H-indazol-5-yl)-amine]
40 to 80	56	< 40	3	< 40	10	CCn1ncc2c1CC[C@@H](Nc1nc3c(-c4ccc(F)cc4C)cccn3n1)C2 [Example R-42, (R)-(1-Ethyl-4,5,6,7-tetrahydro-1H-indazol-5-yl)-[8-(4-fluoro-2-methyl-phenyl)-[1,2,4]triazolo[1,5-a]pyridine-2-yl]-amine]
< 40	24	< 40	-8	< 40	2	CCn1ncc2c1CC[C@@H](Nc1nc3c(-c4ccc(F)c(Cl)c4)cccn3n1)C2 [Example R-61, (R)-[8-(3-Chloro-4-fluoro-phenyl)-[1,2,4]triazolo[1,5-a]pyridine-2-yl]-(1-ethyl-4,5,6,7-tetrahydro-1H-indazol-5-yl)-amine]
< 40	11	< 40	-21	< 40	-15	CCn1ncc2c1CC[C@H](Nc1nc3c(-c4ccc(F)c(Cl)c4)cccn3n1)C2 [Example S-61, (S)-[8-(3-Chloro-4-fluoro-phenyl)-[1,2,4]triazolo[1,5-a]pyridine-2-yl]-(1-ethyl-4,5,6,7-tetrahydro-1H-indazol-5-yl)-amine]
